Test results from ChEMBL document CHEMBL3885881, “DrugMatrix”.

Species: Rattus norvegicus
Test: DrugMatrix - Regimen: Daily Repeat
Format: toxicity, organism-based, Sprague-Dawley
Design: regimen Daily Repeat, gender Male, age 6-8 weeks
Conditions: in vivo, po, 12 mg/kg, route oral GAVAGE, dose level Low, vehicle .5 % CMC; for ABSOLUTE BASOPHIL / ABSOLUTE EOSINOPHIL / ABSOLUTE LYMPHOCYTE / ABSOLUTE MONOCYTE / ABSOLUTE SEGMENTED NEUTROPHIL / BASOPHIL / EOSINOPHIL / ERYTHROCYTE COUNT / HEMATOCRIT / HEMOGLOBIN / LEUKOCYTE COUNT / LYMPHOCYTE / MEAN CORPUSCULAR HEMOGLOBIN / MEAN CORPUSCULAR HEMOGLOBIN CONCENTRATION / MEAN CORPUSCULAR VOLUME / MONOCYTE / NEUTROPHIL / NUCLEATED RED BLOOD CELLS / PLATELET COUNT: tissue Blood; for ALANINE AMINOTRANSFERASE / ALBUMIN / ALKALINE PHOSPHATASE / ASPARTATE AMINOTRANSFERASE / BLOOD UREA NITROGEN / CARBON DIOXIDE / CHLORIDE / CHOLESTEROL / CREATINE PHOSPHOKINASE / CREATININE / GLUCOSE / LACTATE DEHYDROGENASE / LIPASE / PHOSPHORUS / POTASSIUM / SODIUM / TOTAL BILIRUBIN / TOTAL PROTEIN / URIC ACID: tissue Plasma

## CC(=O)O[C@]1(C(C)=O)CC[C@H]2[C@@H]3C=C(C)C4=CC(=O)CC[C@]4(C)[C@H]3CC[C@@]21C [MEGESTROL ACETATE]
72 h, time 3 day
  ABSOLUTE BASOPHIL: 0 CELLS/uL
  ABSOLUTE EOSINOPHIL: 84.67 CELLS/uL
  ABSOLUTE LYMPHOCYTE: 11039.33 CELLS/uL
  ABSOLUTE MONOCYTE: 40 CELLS/uL
  ABSOLUTE SEGMENTED NEUTROPHIL: 1136 CELLS/uL
  BASOPHIL: 0%
  EOSINOPHIL: 0.67%
  ERYTHROCYTE COUNT: 5.83 x10E6/uL
  HEMATOCRIT: 37.03%
  HEMOGLOBIN: 13.83 G/DL
  LEUKOCYTE COUNT: 12.3 x10E3/uL
  LYMPHOCYTE: 89.67%
  MEAN CORPUSCULAR HEMOGLOBIN: 23.77 pg
  MEAN CORPUSCULAR HEMOGLOBIN CONCENTRATION: 37.37 G/DL
  MEAN CORPUSCULAR VOLUME: 63.5 fL
  MONOCYTE: 0.33%
  NEUTROPHIL: 9.33%
  NUCLEATED RED BLOOD CELLS: 0 /100WBC
  PLATELET COUNT: 1299.33 x10E3/uL
  ALANINE AMINOTRANSFERASE: 52 u/L
  ALBUMIN: 4.43 G/DL
  ALKALINE PHOSPHATASE: 394.33 u/L
  ASPARTATE AMINOTRANSFERASE: 80.67 u/L
  BLOOD UREA NITROGEN: 16.33 mg/dL
  CARBON DIOXIDE: 25.33 mmol/L
  CHLORIDE: 103.67 MEQ/L
  CHOLESTEROL: 66.33 mg/dL
  CREATINE PHOSPHOKINASE: 195 u/L
  CREATININE: 0.25 mg/dL
  GLUCOSE: 179.67 mg/dL
  LACTATE DEHYDROGENASE: 177.33 u/L
  LIPASE: 8 u/L
  PHOSPHORUS: 13.6 mg/dL
  POTASSIUM: 6.09 MEQ/L
  SODIUM: 146.33 MEQ/L
  TOTAL BILIRUBIN: 0.27 mg/dL
  TOTAL PROTEIN: 6.43 G/DL
  URIC ACID: 1.73 mg/dL
120 h, time 5 day
  ABSOLUTE BASOPHIL: 0 CELLS/uL
  ABSOLUTE EOSINOPHIL: 115.33 CELLS/uL
  ABSOLUTE LYMPHOCYTE: 7823.33 CELLS/uL
  ABSOLUTE MONOCYTE: 0 CELLS/uL
  ABSOLUTE SEGMENTED NEUTROPHIL: 461.33 CELLS/uL
  BASOPHIL: 0%
  EOSINOPHIL: 1.33%
  ERYTHROCYTE COUNT: 5.55 x10E6/uL
  HEMATOCRIT: 36.1%
  HEMOGLOBIN: 13.53 G/DL
  LEUKOCYTE COUNT: 8.4 x10E3/uL
  LYMPHOCYTE: 93.33%
  MEAN CORPUSCULAR HEMOGLOBIN: 24.37 pg
  MEAN CORPUSCULAR HEMOGLOBIN CONCENTRATION: 37.53 G/DL
  MEAN CORPUSCULAR VOLUME: 65.03 fL
  MONOCYTE: 0%
  NEUTROPHIL: 5.33%
  NUCLEATED RED BLOOD CELLS: 0 /100WBC
  PLATELET COUNT: 1160 x10E3/uL
  ALANINE AMINOTRANSFERASE: 48.33 u/L
  ALBUMIN: 4.4 G/DL
  ALKALINE PHOSPHATASE: 429.67 u/L
  ASPARTATE AMINOTRANSFERASE: 75.33 u/L
  BLOOD UREA NITROGEN: 15 mg/dL
  CARBON DIOXIDE: 27.33 mmol/L
  CHLORIDE: 102.33 MEQ/L
  CHOLESTEROL: 63.33 mg/dL
  CREATINE PHOSPHOKINASE: 205 u/L
  CREATININE: 0.16 mg/dL
  GLUCOSE: 151.67 mg/dL
  LACTATE DEHYDROGENASE: 111.33 u/L
  LIPASE: 8.33 u/L
  PHOSPHORUS: 12.33 mg/dL
  POTASSIUM: 5.99 MEQ/L
  SODIUM: 148.33 MEQ/L
  TOTAL BILIRUBIN: 0.3 mg/dL
  TOTAL PROTEIN: 6.2 G/DL
  URIC ACID: 0.93 mg/dL
